Laboratory results as given in US10538528B2, “5H-pyrrolo[2,3-D]pyrimidin-6(7H)-one derivative” (Taiho Pharmaceutical Co., Ltd., priority 2016, dated 2020).
pIC50: −log10 of the molar value.

What was measured:
human Akt1 = human Akt1 (Homo sapiens (Human), UniProt P31749); test: Inhibitory effects on Akt1 kinase activity (TR-FRET, biotinylated Crosstide); format: biochemical; details: Akt1, ATP 150 μM, pre-incubation 120 minutes at 25° C.; read-out: AKT inhibitory activity IC50
Procedure: Akt1 was prepared and assays of inhibitory activity of the compound according to the present invention against Akt1 kinase activity in vitro were conducted according to the method described in Biochem. J., vol. 385, pp. 399-408, 2005 and Cancer Res., vol. 68, pp. 2366-2374, 2008. In the preparation of Akt1 protein, human Akt1 tagged with the middle T antigen was expressed in an insect cell Sf9, Akt1 was prepared through affinity purification and activation by PDK1, and the resultant was stored at −80° C. until the inhibition assays of the compounds. In the inhibition assay of the compounds, Akt1 and the compound according to the present invention were subjected to pre-incubation at 25° C. for 120 minutes in a reaction buffer (15 mM Tris-HCl, pH 7.5, 0.01% Tween-20, 2 mM DTT). Subsequently, biotinylated Crosstide (biotin-[…], Millipore), MgCl2, and ATP were added as substrates at the final concentration of 500 nM, 10 mM, and 150 μM, respectively, and the reaction was allowed to proceed at 25° C. for 60 minutes. EDTA was added to the final concentration of 40 mM to terminate the reaction, a detection liquid containing the Eu-anti-phospho-Crosstide antibody (PerkinElmer) and SureLight APC-SA (PerkinElmer) at the final concentration of 0.5 nM and 62.5 nM, respectively was added, and the reaction was allowed to proceed at room temperature for 2 hours. In the end, the fluorescence levels irradiated with an excitation light of 337 nm were assayed at two different wavelength levels (i.e., 620 nm and 665 nm) using PI-HERAstar FS (BMG LABTECH) or PHERAstar (BMG LABTECH). The level of the phosphorylation reaction was determined on the basis of the ratio of fluorescence levels at two wavelength levels, and the concentration of the compound at which phosphorylation could be inhibited by 50% was defined as the IC50 level (nM) and shown in Table 2.
As reference compounds, conventional Comparative Example A (WO 2010/056563 (Example 31)) and Comparative Example B having inhibitory activity against Akt were used.

S6K1 = S6K1 (Homo sapiens (Human), UniProt P23443); test: Inhibitory effects on S6K1 kinase activity (QSS Assist FP assay kit); format: biochemical; details: S6K1, ATP 25 μM; read-out: S6K inhibitory activity IC50
Procedure: Inhibitory activity of the compound according to the present invention on S6K1 kinase activity in vitro was assayed using the QSS Assist™ FP assay kit (Carna Biosciences, Inc.).
In the inhibition assay for inhibitory activity of the compound, the test compound was diluted by serial dilution with dimethyl sulfoxide (DMSO). Subsequently, an S6K protein, a substrate peptide (final concentration: 100 nM), magnesium chloride (final concentration: 5 mM), ATP (final concentration: 25 μM), and the solution of the test compound in DMSO (final DMSO concentration: 5%) were added to the kinase reaction buffer (20 mM HEPES (pH 7.4), 2 mM dithiothreitol, 0.01% Tween-20), and the mixture was incubated at 25° C. for 30 minutes to perform the kinase reaction. The IMAP Progressive Binding Reagent diluted to 400-fold with the IMAP Progressive Binding Buffer A (Molecular Devices, LLC) was added thereto to terminate the kinase reaction. The reaction product was allowed to stand at room temperature in the dark for 120 minutes and assayed with the use of PHERAstar (BMG LABTECH; excitation wavelength: 485 nm; detection wavelength: 520 nm). The level of phosphorylation reaction was determined based on the degree of fluorescence polarization, and the concentration of the compound at which phosphorylation could be inhibited by 50% was defined as the IC50 level (nM) and shown in Table 4.

[1] = test system: RKO cells (human colon cancer cell lines); test: Cell growth inhibition study using RKO cells (CellTiter-Glo); format: cell-based; details: 72 h, 3 days
Procedure: The in vitro cell growth inhibition study using RKO cells (human colon cancer cell lines) was conducted as described below.
RKO cells (ATCC, Cat#: CRL-2577) cultured in a MEM medium (GIBCO, Cat#:10370-088) supplemented with 10% FBS, 1 mM L-glutamine (GIBCO, Cat#:25030), and 1 mM sodium pyruvate (GIBCO, Cat#:11360) were seeded in a 96-well flat bottom microplate (COSTAR, Cat#:3904) at 2×10^3 cells (150 μl) and cultured in an incubator containing 5% CO2 at 37° C. for 1 day. The compound according to the present invention subjected to serial dilution with dimethyl sulfoxide or dimethyl sulfoxide alone was added to a MEM medium containing 10% FBS, 1 mM L-glutamine, and 1 mM sodium pyruvate. The resultant medium containing the compound or dimethyl sulfoxide alone was added to the RKO cells in the culture plate by 50 μl/well at the final concentration of the compound to 10, 3, 1, 0.3, 0.1, 0.03, 0.01, 0.003, and 0 μM, respectively. Another RKO cell culture plate separately prepared was allowed to stand at room temperature for 30 minutes, then 100 μl of the medium was removed, and added 50 μl of CellTiter-Glo® 2.0 Assay (Promega, Cat#:G9242) to each well. After the plates were placed in the dark for 10 minutes, the luminescence level derived from viable cells in each well was measured by the Multimode Plate Reader (PerkinElmer, EnSpire). The cells treated with the compound or dimethyl sulfoxide alone were cultured at 37° C. in an incubator containing 5% CO2 for an additional 3 days. After incubation, the culture plate was placed at room temperature for 30 minutes, and 150 μl of the supernatant was removed from each well to adjust the amount of the remaining cell culture solution to 50 μl each. To 50 μl of the remaining cell culture solution, the equivalent amount of CellTiter-Glo® 2.0 Assay was added. After the cell culture plate was placed in the dark for 10 minutes, the luminescence level derived from viable cells in each well was assayed with the use of the Multimode Plate Reader. The cell growth rate was calculated by the formulae shown below and the concentration at which the cell growth rate became 50%; i.e., the concentration of the compound according to the present invention at which cell growth would be inhibited by 50% was determined (GI50 (nM)). Cell growth rate (%)=(T−C0)/(C−C0)×100, provided that T is equal to or greater than C0(T≥C0) Cell growth rate (%)=(T−C0)/C0×100, provided that T is less than C0(T<C0) C0: Luminescence level in each well when the compound is added (count per second) C: Luminescence level in each well when dimethyl sulfoxide is added alone (count per second) T: Luminescence level in each well when the test compound is added (count per second)
As control compounds, conventional Comparative Example A (WO 2010/056563 (Example 31)) and Comparative Example B having inhibitory activity against Akt were used.
The GI50 levels of representative compounds according to the present invention and reference compounds in RKO cells were evaluated, and the results are shown in Table 5.

Rsk1 = Rsk1 (Homo sapiens (Human), UniProt Q15418); test: Inhibitory effects on Rsk1 kinase activity (QSS Assist FP assay kit); format: biochemical; details: Rsk1, ATP 30 μM; read-out: Rsk inhibitory activity IC50
Procedure: Inhibitory activity of the compound according to the present invention on Rsk1 kinase activity in vitro was assayed using the QSS Assist™ FP assay kit (Carna Biosciences, Inc.).
In the inhibition assay of inhibitory activity of the compound, the test compound was diluted by serial dilution with dimethyl sulfoxide (DMSO). Subsequently, an Rsk1 protein, a substrate peptide (final concentration: 100 nM), magnesium chloride (final concentration: 10 mM), ATP (final concentration: 30 μM), and the solution of the test compound in DMSO (DMSO final concentration: 5%) were added to the kinase reaction buffer (20 mM HEPES (pH 7.4), 2 mM dithiothreitol, 0.01% Tween-20), and the mixture was incubated at 25° C. for 40 minutes to perform the kinase reaction. The IMAP Progressive Binding Reagent diluted to 400-fold with the IMAP Progressive Binding Buffer A (Molecular Devices, LLC) was added to terminate the kinase reaction.

Sequence of Rsk1 (Q15418 whole entry): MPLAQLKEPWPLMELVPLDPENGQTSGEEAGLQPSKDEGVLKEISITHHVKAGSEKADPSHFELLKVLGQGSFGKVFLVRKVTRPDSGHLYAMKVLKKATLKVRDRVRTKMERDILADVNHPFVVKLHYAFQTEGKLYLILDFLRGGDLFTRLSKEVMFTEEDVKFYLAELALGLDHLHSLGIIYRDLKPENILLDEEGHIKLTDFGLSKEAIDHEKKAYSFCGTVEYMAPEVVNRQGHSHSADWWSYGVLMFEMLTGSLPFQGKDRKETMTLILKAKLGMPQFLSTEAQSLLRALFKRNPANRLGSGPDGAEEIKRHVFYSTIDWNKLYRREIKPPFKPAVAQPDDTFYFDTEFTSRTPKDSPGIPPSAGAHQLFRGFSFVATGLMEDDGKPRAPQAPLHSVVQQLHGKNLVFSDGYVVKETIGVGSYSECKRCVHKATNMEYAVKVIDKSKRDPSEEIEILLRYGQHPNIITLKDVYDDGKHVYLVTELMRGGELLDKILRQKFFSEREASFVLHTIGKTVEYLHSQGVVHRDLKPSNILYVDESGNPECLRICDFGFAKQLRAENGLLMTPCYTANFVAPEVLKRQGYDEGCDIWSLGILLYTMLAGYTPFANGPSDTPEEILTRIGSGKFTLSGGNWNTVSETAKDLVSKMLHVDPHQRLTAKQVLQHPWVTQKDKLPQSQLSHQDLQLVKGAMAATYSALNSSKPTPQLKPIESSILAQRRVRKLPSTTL
Sequence of human Akt1 (P31749 whole entry): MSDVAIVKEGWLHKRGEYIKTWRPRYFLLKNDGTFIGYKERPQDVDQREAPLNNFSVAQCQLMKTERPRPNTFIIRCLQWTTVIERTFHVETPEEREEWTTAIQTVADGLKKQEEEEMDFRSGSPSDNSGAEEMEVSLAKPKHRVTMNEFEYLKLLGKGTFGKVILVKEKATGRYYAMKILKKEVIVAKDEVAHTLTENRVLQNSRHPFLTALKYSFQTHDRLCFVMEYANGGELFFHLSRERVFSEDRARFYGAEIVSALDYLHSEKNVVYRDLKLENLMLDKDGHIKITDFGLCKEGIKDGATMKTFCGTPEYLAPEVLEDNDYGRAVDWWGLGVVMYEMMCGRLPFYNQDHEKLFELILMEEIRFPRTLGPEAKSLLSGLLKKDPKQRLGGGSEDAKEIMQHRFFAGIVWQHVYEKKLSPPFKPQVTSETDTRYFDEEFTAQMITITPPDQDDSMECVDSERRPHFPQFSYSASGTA
Sequence of S6K1 (P23443 whole entry): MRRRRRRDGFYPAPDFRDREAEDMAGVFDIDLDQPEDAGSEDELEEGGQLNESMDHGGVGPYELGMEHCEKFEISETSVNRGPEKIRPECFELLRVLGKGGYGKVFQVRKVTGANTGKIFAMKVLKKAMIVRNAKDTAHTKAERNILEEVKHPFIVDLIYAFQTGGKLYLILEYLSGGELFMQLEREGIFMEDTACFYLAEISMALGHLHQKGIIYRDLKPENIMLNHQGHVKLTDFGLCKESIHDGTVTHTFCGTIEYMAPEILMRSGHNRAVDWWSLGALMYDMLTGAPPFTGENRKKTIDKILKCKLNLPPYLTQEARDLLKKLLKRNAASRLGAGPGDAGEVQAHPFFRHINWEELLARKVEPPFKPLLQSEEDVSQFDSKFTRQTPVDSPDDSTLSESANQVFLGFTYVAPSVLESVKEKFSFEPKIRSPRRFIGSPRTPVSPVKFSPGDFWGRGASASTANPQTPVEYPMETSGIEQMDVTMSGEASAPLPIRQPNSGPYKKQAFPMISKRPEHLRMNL

SMILES	pIC50 (human Akt1)	pIC50 (S6K1)	GI50 [1] [nM]	pIC50 (Rsk1)
CC(C)(C)NCCNc1ccc(-c2noc(C(F)F)n2)nc1C1CCN(c2ncnc3c2C(C)(C)C(=O)N3)CC1 [Compound 41, 4-(4-(3-((2-(Tert-butylamino)ethyl)amino)-6-(5-(difluoromethyl)-1,2,4-oxadiazol-3-yl)pyridin-2-yl)piperidin-1-yl)-5,5-dimethyl-5H-pyrrolo[2,3-d]pyrimidin-6(7H)-one]	8.14	9.52	86	8.80
CC(C)(C)NCCNc1ccc(-c2cncc(F)c2)nc1C1CCN(c2ncnc3c2C(C)(C)C(=O)N3)CC1 [Compound 1, 4-(4-(5-((2-(Tert-butylamino)ethyl)amino)-5′-fluoro-[2,3′-bipyridin]-6-yl)piperidin-1-yl)-5,5-dimethyl-5H-pyrrolo[2,3-d]pyrimidin-6(7H)-one]	8.17	9.40	136	8.82
CC1(C)C(=O)Nc2ncnc(N3CCC(c4nc(-c5nnc(C(F)F)o5)ccc4NCCN4CCCC4)CC3)c21 [Compound 30, 4-(4-(6-(5-(Difluoromethyl)-1,3,4-oxadiazol-2-yl)-3-((2-(pyrrolidin-1-yl)ethyl)amino)pyridin-2-yl)piperidin-1-yl)-5,5-dimethyl-5H-pyrrolo[2,3-d]pyrimidin-6(7H)-one]	7.84	9.30	82	8.77
COc1cncc(-c2ccc(NCCNC(C)C)c(C3CCN(c4ncnc5c4C(C)C(=O)N5)CC3)n2)c1 (stereo not shown) [Compound 15, 4-(4-(5-((2-(Isopropylamino)ethyl)amino)-5′-methoxy-[2,3′-bipyridin]-6-yl)piperidin-1-yl)-5-methyl-5H-pyrrolo[2,3-d]pyrimidin-6(7H)-one]	8.68	9.15	122	8.96
CC(C)(C)NCCNc1ccc(-c2nnc(C(F)(F)F)o2)nc1C1CCN(c2ncnc3c2C(C)(C)C(=O)N3)CC1 [Compound 32, 4-(4-(3-((2-(Tert-butylamino)ethyl)amino)-6-(5-(trifluoromethyl)-1,3,4-oxadiazol-2-yl)pyridin-2-yl)piperidin-1-yl)-5,5-dimethyl-5H-pyrrolo[2,3-d]pyrimidin-6(7H)-one]			89	

Continued, values first:

pIC50 (human Akt1)	pIC50 (S6K1)	GI50 [1] [nM]	pIC50 (Rsk1)	SMILES
8.72	9.22	130		CC1C(=O)Nc2ncnc(N3CCC(c4nc(-c5nccs5)ccc4NCCN4CCCC4)CC3)c21 (stereo not shown) [Compound 24, 5-Methyl-4-(4-(3-((2-(pyrrolidin-1-yl)ethyl)amino)-6-(thiazol-2-yl)pyridin-2-yl)piperidin-1-yl)-5H-pyrrolo[2,3-d]pyrimidin-6(7H)-one]
8.59	9.40	102	9.30	CC1(C)C(=O)Nc2ncnc(N3CCC(c4nc(-c5nc(C(F)(F)F)no5)ccc4NCCN4CCCC4)CC3)c21 [Compound 44, 5,5-Dimethyl-4-(4-(3-((2-(pyrrolidin-1-yl)ethyl)amino)-6-(3-(trifluoromethyl)-1,2,4-oxadiazol-5-yl)pyridin-2-yl)piperidin-1-yl)-5H-pyrrolo[2,3-d]pyrimidin-6(7H)-one]
8.85	9.40	111	8.85	CC1C(=O)Nc2ncnc(N3CCC(c4nc(-c5ccnc(F)c5)ccc4NCCN4CCCC4)CC3)c21 (stereo not shown) [Compound 13, 4-(4-(2′-Fluoro-5-((2-(pyrrolidin-1-yl)ethyl)amino)-[2,4′-bipyridin]-6-yl)piperidin-1-yl)-5-methyl-5H-pyrrolo[2,3-d]pyrimidin-6(7H)-one]
	9.22	124		CC1C(=O)Nc2ncnc(N3CC=C(c4nc(-c5cncc(F)c5)ccc4NCCN4CCCC4)CC3)c21 (stereo not shown) [Compound 26, 4-(5-Fluoro-5′-((2-(pyrrolidin-1-yl)ethyl)amino)-5″,6″-dihydro-[3,2′:6′,4″-terpyridine-]-1″(2″H)-yl)-5-methyl-5H-pyrrolo[2,3-d]pyrimidin-6(7H)-one]
9.30	9.05	118	8.77	CC1C(=O)Nc2ncnc(N3CCC(c4nc(-c5ccoc5)ccc4NCCN4CCCC4)CC3)c21 (stereo not shown) [Compound 14, 4-(4-(6-(Furan-3-yl)-3-((2-(pyrrolidin-1-yl)ethyl)amino)pyridin-2-yl)piperidin-1-yl)-5-methyl-5H-pyrrolo[2,3-d]pyrimidin-6(7H)-one]
8.80		48	8.74	CC1C(=O)Nc2ncnc(N3CCC(c4cc(-c5cc(C(F)(F)F)nn5C)cnc4NCCN4CCCC4)CC3)c21 (stereo not shown) [Compound 27, 5-Methyl-4-(4-(5-(1-methyl-3-(trifluoromethyl)-1H-pyrazol-5-yl)-2-((2-(pyrrolidin-1-yl)ethyl)amino)pyridin-3-yl)piperidin-1-yl)-5H-pyrrolo[2,3-d]pyrimidin-6(7H)-one]
